The target of assay [1] is aldose reductase (Rattus norvegicus, UniProt P07943). Kind of assay: In vitro inhibition of enzyme activity (rat hepatic enzyme preparation). In kind it is biochemical. Particulars: read-out: IC50 (molar concentration required for 50% inhibition of aldose reductase). An excerpt:
1. in vitro inhibition of the enzyme activity of isolated aldose reductase;
In vitro inhibition of enzyme activity (rat hepatic enzyme preparation)
The inhibiting values on aldose reductase are summarized in Table 1 for some compounds according to the invention (IC50 [M] denotes the molar concentration of the compound which is required for 50% inhibition).

In assay [2] the test system is sorbitol accumulation in erythrocytes. Put plainly: Reduction of increased sorbitol levels in streptozotocin-diabetic rats, erythrocytes. It is filed as in vivo. To be noted: 25 mg/kg oral in Tylose suspension, vs untreated controls. The text has this:
(§1) 3. reduction of increased sorbitol levels in streptozotocin-diabetic rats in vivo;
(§2) Reduction of increased sorbitol levels
(§3) The oral administration in ®Tylose suspension (=suspension of a water-soluble cellulose ether), of the substances mentioned as examples in the following Table 3 to streptozotocin-diabetic rats leads to a great reduction in the sorbitol accumulation in erythrocytes and in the nerve tissue in comparison with untreated control animals.

The test system of assay [3] is sorbitol accumulation in nerve tissue. Kind of assay: Reduction of increased sorbitol levels in streptozotocin-diabetic rats, nerve tissue. In kind it is in vivo. To be noted: 25 mg/kg oral in Tylose suspension, vs untreated controls.
Excerpt: as §1, §2, §3

For assay [4], the system named is sorbitol accumulation in nerve. Put plainly: In vitro inhibition of sorbitol accumulation, nerve (tissue of normal rats). It is filed as cell-based. To be noted: Rattus norvegicus, 3 μmol/l. On the procedure: (§4) 2. in vitro inhibition of the sorbitol accumulation in erythrocytes in the lens or in the sciatic nerve of normal or streptozotocin-diabetic rats;
(§5) In vitro inhibition of sorbitol accumulation (tissue of normal rats)
(§6) The inhibiting values summarized in Table 2 were determined for some of the compounds according to the invention at a concentration of 3 μmol/l.

In assay [5] the test system is sorbitol accumulation in erythrocytes. Kind of assay: In vitro inhibition of sorbitol accumulation, erythrocytes (tissue of normal rats). In kind it is cell-based. Particulars: Rattus norvegicus, Erythrocyte, 3 μmol/l. On the procedure:
as §4, §5, §6

Usually inhibition stands for the change of the read-out against control, counted positive when it falls.

In the case of “5-(6'/7'-Fluoro-3'-methyl-quinoxalin-2'-yl)-5-methyl-imidazolidine-2,4-dion [Example 26]”, in assay [1], the IC50 turned out to be 280 µM.

Turning to “5-(6'/7'-Fluoro-quinoxalin-2'-yl)-5-methyl-imidazolidine-2,4-dione [Example 25]”, in assay [2], the “Sorbitol content after 5 hours in erythrocytes” value is reported as -66%. Besides, the “Sorbitol content after 5 hours in nerve tissue” value in assay [3] is given as -70%.

Take `Cc1nc2ccccc2nc1C1(C)NC(=O)NC1=O` (single isomer, unassigned; (+)) [Example 33, (+)-5-Methyl-5-(3'-methyl-quinoxalin-2'-yl)-imidazolidine-2,4-dione]: the inhibition at 3 µM is -30% in assay [4] and -26% in assay [5].

With `CCc1nc2ccc(C3(C)NC(=O)NC3=O)cc2nc1CC` (centres unmarked) [Example 2, 5-(2',3'-Diethyl-quinoxalin-6'-yl)-5-methyl-imidazolidine2,4-dione], the inhibition at 3 µM in assay [4] is -30%. Further, the “Sorbitol content after 5 hours in erythrocytes” value in assay [2] is -57%. Besides, the “Sorbitol content after 5 hours in nerve tissue” value in assay [3] is -22%.

As to `CC1(c2cnc3ccccc3n2)NC(=O)NC1=O` (centres unmarked) [Example 18, 5-(Quinoxalin-2'-yl)-5-methyl-imidazolidine-2,4-dione], the values for the inhibition at 3 µM in assay [4] and in assay [5] were -39% and -10%, respectively.

With `Cc1cc2nc(C)c(C3(C)NC(=O)NC3=O)nc2cc1C` (centres unmarked) [Example 20, 5-Methyl-5-(3',6',7'-trimethyl-quinoxalin-2'-yl)-imidazolidine-2,4-dione hydrate], the inhibition at 3 µM in assay [5] was -29%.

In the case of `COc1cc2ncc(C3(C)NC(=O)NC3=O)nc2cc1OC` (centres unmarked) [Example 21, 5-(6',7'-Dimethoxy-quinoxalin-2'-yl)-5-methyl-imidazolidine-2,4-dione], the inhibition at 3 µM in assay [4] was -38%; in assay [5], -26%.

Regarding `Cc1nc2ccccc2nc1C1(C)NC(=O)NC1=O` (centres unmarked) [Example 23, 5-Methyl-5-(3'-methyl-quinoxalin-2'-yl)-imidazolidine-2,4-dione], the results for the inhibition at 3 µM in assay [4] and in assay [5] were -65% and -21%, respectively. For the same compound, the “Sorbitol content after 5 hours in erythrocytes” value in assay [2] was -72%. Besides, the “Sorbitol content after 5 hours in nerve tissue” value in assay [3] is -83%.

The values are drawn from US4943576A, “Substituted quinoxalyl-imidazolidine-2,4-diones, processes for their preparation, their use as medicaments and pharmaceutical preparations” (Hoechst Aktiengesellschaft, priority 1987, dated 1990).
